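These data come from cells grown in 96-well plates and exposed to compound for 48 hours at five concentrations. GI50: concentration for 50% inhibition of growth. TGI marks complete inhibition of growth.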

Holding throughout (experiment): NCI-60 cell line screen, 48 h
For assay [1], the system named is A498 renal.
Assay [2] relates to DU-145 prostate.
Assay [3] has as its system HCT-116 colon.
Assay [4] deals with HOP-62 NSCLC.
In assay [5] the test system is MCF7 breast.
Assay [6] concerns MDA-MB-435.
For assay [7], the system named is NCI-H460 lung.
For assay [8], the system named is RPMI-8226 leukemia.
Assay [9] deals with SN12C renal.
Assay [10] deals with UACC-62 melanoma.

For the compound `CCN(CC)CCn1ccc(=O)c2cc3c(=O)ccn(CCN(CC)CC)c3c(C)c21`, the TGI in assay [1] is 29.2 µM; in [2] it was 20.7 µM; in [3], 9.08 µM; in assay [4] it was 19.7 µM; in assay [5], > 100 µM; in assay [6] it was 16.7 µM. Besides, the TGI in [7] came to 3.47 µM; in [8], 6.8 µM; in [9] it was 21.3 µM; in assay [10], 29.2 µM.

On to `CCCCOc1ccc(NC(N)=Nc2ccc(Cl)cc2)cc1`, for which the TGI was found to be 14.5 µM in assay [1]; 13.6 µM in assay [2]; 12.4 µM in assay [3]; 2.86 µM in [4]; 4.2 µM in assay [5]; 23.4 µM in assay [6]. Also, the TGI in [7] is 8.91 µM; in assay [8], > 49.5 µM; in assay [9] it was 15.9 µM; in assay [10], 26 µM.

Turning to `COc1c2c(c3c(c1CCC(=O)O)OC(C)(C)C=C3)OC(C)(C)C=C2`, the TGI in assay [1], in assay [2], in [3], in assay [4], in assay [5] and in [6] was > 100 µM throughout. The TGI in assay [8], in [9] and in [10] was > 100 µM throughout.

With `COC(=O)/C=C/C=C(c1ccccc1)c1ccccc1`, the GI50 in assay [1] was 10.6 µM; in [2], 5.48 µM; in assay [3], 3.68 µM; in assay [4] it was 4.14 µM; in assay [5], 4.08 µM; in assay [6] it was 1.63 µM. Further, the GI50 in [7] is 3.67 µM; in assay [8] it was 6.36 µM; in assay [9], 7.83 µM; in assay [10] it was 5.43 µM. Also, the TGI in [1] was 39.6 µM; in assay [2], 52.8 µM; in [3], 18.9 µM; in assay [4] it was 40.9 µM; in assay [5] it was > 100 µM; in assay [6] it was 4.37 µM. Also, the TGI in assay [7] is 15.2 µM; in assay [8] it was 95.5 µM; in assay [9], > 100 µM; in assay [10], 25.4 µM.

As for `COc1cccc(/C=C/C(=O)c2cccc(Nc3nc(Nc4ccccc4)nc(Nc4ccccc4)n3)c2)c1`, the GI50 in assay [1] was 6.04 µM; in [2] it was 19.9 µM; in assay [3], 1.42 µM; in assay [4] it was > 46.9 µM; in assay [5], 1.37 µM; in assay [6] it was 14.5 µM. Besides, the GI50 was 9.01 µM in assay [7], 1.78 µM in assay [8], 48.5 µM in assay [9] and > 100 µM in [10]. Besides, the TGI was 17.7 µM in assay [1]; > 100 µM in assay [2]; 2.93 µM in assay [3]; > 78.1 µM in assay [4]; 6.91 µM in [5]; > 59.7 µM in assay [6]. For the same compound, the TGI in [7] was > 61.8 µM; in assay [8], 6.49 µM; in assay [9] it was > 100 µM; in assay [10] it was > 100 µM.

Regarding `CCNC(=O)Nc1ccccn1`, the TGI in assay [1], in assay [2], in [3], in assay [4], in assay [5] and in [6] was > 100 µM each time. Moreover, the TGI in assay [7], in assay [9] and in assay [10] was > 100 µM each time.

`Nc1c(C(=O)Nc2cccc([N+](=O)[O-])c2)sc2nc3c(cc12)C(O)CCC3` (stereo not drawn): the GI50 is 2.7 µM in assay [1]; 20.5 µM in [2]; 4.09 µM in assay [3]; 6.66 µM in assay [4]; 3.14 µM in assay [5]; 0.403 µM in [6]. Moreover, the GI50 in assay [7] is 4.93 µM; in assay [9], 7.39 µM; in [10], 5.93 µM. The TGI in assay [1] is > 100 µM; in assay [2], > 100 µM; in assay [3], > 100 µM; in [4], > 100 µM; in assay [5], > 100 µM; in [6], 2.78 µM. Also, the TGI in assay [7], in assay [9] and in [10] was > 100 µM throughout.

Take `CC1SC(c2c(Cl)cccc2Cl)N(NC(=O)c2[nH]c3ccc(F)cc3c2-c2ccccc2)C1=O` (stereo not drawn): the GI50 is 2.33 µM in [1]; 1.92 µM in assay [2]; 1.71 µM in [3]; 1.79 µM in [4]; 3.18 µM in assay [5]; 5.01 µM in [6]. The GI50 in assay [7] was 2.03 µM; in assay [8], 5.59 µM; in [9] it was 2.26 µM; in assay [10], 4 µM. The TGI in assay [1] is 9.46 µM; in assay [2], 4.36 µM; in assay [3], 3.08 µM; in assay [4], 3.33 µM; in assay [5], 11.5 µM; in assay [6], > 100 µM. Moreover, the TGI in assay [7] was 3.9 µM; in [8] it was > 100 µM; in assay [9], 5.86 µM; in [10], 32.5 µM.

`OC[C@@H](O)[C@H]1NC[C@@H](O)[C@H]1O`: the TGI in assay [1], in assay [2], in assay [3], in assay [4], in assay [5] and in assay [6] was > 100 µM throughout. In addition, the TGI in assay [7], in assay [8], in [9] and in assay [10] was > 100 µM throughout.

`C=C1C(=O)O[C@H]2[C@H]1CC/C(COC(=O)NCc1ccccc1OC)=C\CC[C@@]1(C)O[C@@H]21`: the GI50 in [1] is 3.23 µM; in assay [2], 0.698 µM; in [3], 0.548 µM; in assay [4] it was 3.69 µM; in assay [6], 1.7 µM; in [7] it was 3.73 µM. Also, the GI50 in [8] was 1.77 µM. Further, the TGI amounted to 8.53 µM in [1]; 1.98 µM in assay [2]; 1.86 µM in assay [3]; 14.4 µM in assay [4]; 4.86 µM in assay [6]; 14.6 µM in [7]. The TGI in assay [8] is 6.24 µM.

For `COc1ccc2nc3cc([N+](=O)[O-])ccc3c(NCCCCCN(C)C)c2c1`, the GI50 in assay [1] was 1.07 µM; in assay [2], 0.286 µM; in assay [3], 0.0453 µM; in [4] it was 0.0536 µM; in [5], 0.0514 µM; in [6] it was 0.271 µM. The GI50 in [7] was 0.0815 µM; in assay [8], 0.0741 µM; in assay [9], 0.179 µM; in [10], 0.231 µM. Further, the TGI was determined as 2.98 µM in assay [1]; 11.3 µM in assay [2]; 1.18 µM in assay [3]; 0.301 µM in [4]; 1.04 µM in assay [5]; 0.972 µM in assay [6]. The TGI in assay [7] amounted to 1.03 µM; in assay [8] it was 1.25 µM; in assay [9], 0.631 µM; in assay [10], 0.74 µM.

On to `COc1c(CCC[P+](c2ccccc2)(c2ccccc2)c2ccccc2)cc2c(c1OC)OCO2`, for which the GI50 in [1] is 0.0261 µM; in assay [2], 3.56 µM; in assay [3], 1.2 µM; in assay [4], 3.42 µM; in assay [5] it was 1.12 µM; in [6], 0.462 µM. The GI50 was 1.45 µM in assay [7], 0.233 µM in [8], 2.42 µM in [9] and 0.569 µM in [10]. The TGI is 3.3 µM in assay [1]; > 100 µM in assay [2]; > 100 µM in assay [3]; 14.5 µM in assay [4]; 10.7 µM in assay [5]; 5.03 µM in assay [6]. In addition, the TGI in [7] is 4.56 µM; in [8] it was 1.72 µM; in assay [9], 10.4 µM; in assay [10], 5.53 µM.

On to `CC(C)(C)C#CC1=C(Br)C(=O)OC1`, for which the GI50 in [1] was 4.04 µM; in [2], 1.53 µM; in assay [4], 0.454 µM; in assay [5] it was 3.99 µM; in assay [6] it was 7.44 µM; in [7] it was 3.72 µM. Moreover, the results for the GI50 in [8], in assay [9] and in assay [10] were 0.597 µM, 6.26 µM and 13.2 µM, respectively. The TGI stood at 15.1 µM in assay [1]; 3.31 µM in assay [2]; 1.48 µM in [4]; 25.9 µM in [5]; 24.1 µM in assay [6]; 15.1 µM in assay [7]. For the same compound, the TGI in [8] is 3.71 µM; in assay [9] it was 17.7 µM; in [10], > 45.5 µM.

For the compound `O=C(c1ccc(F)cc1)c1cccc(C(=O)c2ccc(F)cc2)n1`, the TGI in assay [1] is > 100 µM; in assay [2] it was > 100 µM; in assay [3] it was 81.8 µM; in [4], 48.6 µM; in [5], > 100 µM; in assay [6], > 100 µM. The TGI in [7] is > 100 µM; in [8], > 100 µM; in assay [9], > 56.2 µM; in assay [10], > 100 µM.

For the compound `Cc1ccc(S(=O)(=O)N2CCSCCSCCSCCSCC2)cc1`, the TGI in [1] was > 74.2 µM; in assay [2] it was > 100 µM; in [3], > 100 µM; in [4], > 57 µM; in assay [5] it was > 100 µM; in assay [6] it was > 100 µM. For the same compound, the TGI in [7] is > 100 µM; in [8], > 100 µM; in assay [9], > 96.8 µM; in [10], 38.1 µM.

Take `COC(=O)[C@]12CC[C@@H](C)[C@H](C)[C@@H]1C1=CC[C@@H]3[C@@]4(C)C[C@@H](OC(C)=O)[C@H](O)[C@@](C)(COC(C)=O)[C@@H]4[C@H](O)C[C@@]3(C)[C@]1(C)CC2`: the GI50 in assay [1] was 2.04 µM; in [2] it was 3.48 µM; in [3], 1.95 µM; in assay [4] it was 1.89 µM; in [5], 2.01 µM; in [6], 2.95 µM. Moreover, the GI50 in assay [7] is 2.05 µM; in [8], 2.4 µM. The TGI in assay [1] amounted to 7.4 µM; in assay [2], 11.9 µM; in [3], 4.11 µM; in assay [4], 4.1 µM; in [5], 5.71 µM; in assay [6] it was 10.7 µM. Moreover, the figures for the TGI in assay [7] and in assay [8] were 4.02 µM and 8.06 µM, respectively.

Turning to `CCCN=Cc1cc(Cc2ccc(O)c(C=NCCC)c2)ccc1O`, the TGI in assay [1] is 8.97 µM; in assay [2], 31.1 µM; in [3] it was 7.19 µM; in assay [4] it was > 100 µM; in assay [5], 6.87 µM; in assay [6], > 100 µM. The TGI in assay [7] is 51.9 µM; in assay [9] it was 15.3 µM; in assay [10], 22.7 µM.

For `O=C1c2ccccc2-c2c1c1ccccc1c(=O)n2CCCNCCCNCCCn1c2c(c3ccccc3c1=O)C(=O)c1ccccc1-2`, the GI50 in assay [1] was 1.25 µM; in [2] it was 0.0295 µM; in [3], < 0.01 µM; in assay [4], < 0.01 µM; in assay [5], 0.0382 µM; in [6], 0.338 µM. Further, the GI50 is < 0.0169 µM in assay [7], < 0.01 µM in [9] and 0.0434 µM in assay [10]. Also, the TGI in assay [1] was 2.61 µM; in [2], 0.181 µM; in [3] it was 0.476 µM; in [5], 0.18 µM; in assay [6], 2.26 µM; in assay [7] it was 0.266 µM. Also, the TGI was < 0.0303 µM in [9] and 0.346 µM in assay [10].

Take `COc1ccc(N2C(=O)c3c4c(c5c([nH]c6ncccc65)c3C2=O)CCC(C(C)(C)C)C4)cc1` (stereo not drawn): the TGI in assay [2], in assay [3], in assay [4], in [5], in [6] and in assay [7] was > 100 µM each time. Also, the TGI in assay [8], in [9] and in assay [10] was > 100 µM in each case.

With `CN(C)/C=C/c1nnc([N+](=O)[O-])s1`, the TGI was 67.6 µM in [1]; 30.8 µM in assay [2]; 26.2 µM in [3]; 51.5 µM in [4]; 8.01 µM in assay [5]; 14.2 µM in [6]. The TGI was determined as 33.1 µM in [7], 47.7 µM in [9] and 35.4 µM in assay [10].

Source of the values: PubChem BioAssay (NCI).
